From US12478610B2, “Compositions of tryptophol derivatives and 4-ethyl-phenol derivatives, and methods of using same” (B. G. Negev Technologies and Applications Ltd., at …, priority 2020, dated 2025)

Tests used:
human normal whole blood [1] = assay: Thromboelastography (TEG) of human normal whole blood clotting; format: cell-based
Protocol: Clotting of whole blood (from healthy volunteers, and diabetics patients) was monitored by thromboelastography (TEG) on a TEGs 5000 Hemostasis Analyzer (Haemoscope Inc., Niles, IL) equipped with two independent channels. Thermoelastograms were recorded at 37° C. and analyzed using the TEGs Analytical Software) version 4.2.3 provided with the instrument). Reported clotting parameters are the time until the onset in the measured strength considered as clot reaction time, R; the time until achieving 20% of the maximum clot strength (clotting time), k; the rate of clot strength increase measuring the kinetics of clot formation, the α angle; and finally, the maximum clot strength, MA.
Aqueous solutions of molecules mixture in a ratio of 1:1 in deionized water were prepared in the concentration range of 400-1,800 μM. TEG cups were first filled with […] of 250 mM CaCl2, supplemented with […] of human blood sample, followed by the addition of the appropriate volume of the molecule's mixture dissolved in water to obtain the above rang of concentration or TBS as control before initiating the test. The test completed when clotting parameters obtained final values or within 45 min. Each sample was run in duplicates, n≥5 individual blood samples. TEG values of control fell within the acceptable range reported for human whole blood barring an expected decrease in clot strength (MA), as tested blood was deficient in platelets (Scarpelini et al. Biol. Res., 2009).
The inventors have studied the effect of tryptophol acetate and tyrosol acetate on human normal whole blood coagulation. The blood clotting was monitored by thromboelastography (TEG). TEG is one of the most common whole-blood viscoelastic coagulation tests used in clinical laboratories and at the point of care. TEG provides a direct information of the blood clotting kinetic and strength, with no ‘added reagents. Clotting of human normal whole blood was monitored by TEG on a TEG 5000 Hemostasis Analyzer (Haemoscope Inc., Niles, IL) equipped with two independent channels. Thermoelastograms were recorded at 37° C. and analyzed using the TEG Analytical Software (version 4.2.3 provided using the instrument). Reported clotting parameters are the time till onset in the measured strength considered as the clot reaction time, R; the time till achieving 20% of the maximum clot strength (clotting time), k; the rate of the clot strength increase measuring the kinetics of clot formation, the α angle; and lastly, the maximum clot strength, MA (see table 1). […]

human normal whole blood [2] = assay: as above; format: cell-based; conditions: 200 μM (mixture: 200 μM each); healthy blood; TBS control
[3] = 400 μM (mixture: 400 μM each), healthy blood, TBS control

Structure (SMILES)	K (human normal whole blood [1]; [3]) [min]	MA (mm) (human normal whole blood [1]; [3])	R (min) (human normal whole blood [1]; [3])	α (degree) (human normal whole blood [1]; [3])	effect on the TEG parameters as seen with the mixture at 200 μM each (human normal whole blood [1]; single substance at a similar concentration, whole blood)	K (human normal whole blood [2]) [min]	MA (mm) (human normal whole blood [2])	R (human normal whole blood [2]) [min]	α (degree) (human normal whole blood [2])
NCCc1c[nH]c2ccc(O)cc12 [Serotonin, serotonin]	1.5 ± 0.2	61.3 ± 1.7	5.2 + 0.4 min	62.4 ± 0.9	did not show a similar effect	2.4 ± 0.2	60 ± 0.4	6.8 ± 0.9	58.2 ± 0.3
CC(=O)OCCc1ccc(O)cc1 [compound 180, Tyrosol acetate]	–	–	–	–	–	1.8	59.0	6.4	59.6
CC(=O)OCCc1c[nH]c2ccccc12 [compound 203, Tryptophol acetate]	–	–	–	–	–	2.3 ± 0.1	60.5 ± 1.5	6.2 ± 0.2	56.8 ± 2.7
